SMILES strings stand for the structures.

This test addresses T1, recombinant human AKR1C3 (Aldo-keto reductase family 1 member C3) (Homo sapiens, UniProt P42330).
T1 construct: GST (cleaved yes); made in house; host or cells: E. coli
T1 sequence (P42330 1-323): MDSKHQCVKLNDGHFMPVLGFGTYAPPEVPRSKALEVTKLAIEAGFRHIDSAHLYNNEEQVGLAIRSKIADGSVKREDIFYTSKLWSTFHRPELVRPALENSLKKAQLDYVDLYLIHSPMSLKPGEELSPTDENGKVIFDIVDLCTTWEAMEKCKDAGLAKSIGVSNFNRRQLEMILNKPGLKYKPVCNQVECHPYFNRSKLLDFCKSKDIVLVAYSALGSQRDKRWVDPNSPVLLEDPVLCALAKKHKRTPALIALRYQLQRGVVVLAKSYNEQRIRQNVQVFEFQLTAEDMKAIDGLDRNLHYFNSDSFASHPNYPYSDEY
The test is described as follows: In Vitro Assay 1: AKR1C3-inhibitory activity (Coumberone to Coumberol fluorescence assay). The format is biochemical. As to conditions: recombinant enzyme, Coumberone 0.3 μM, NADPH 10 μM, 15 min pre-incubation, 4-parameter fit; average or median values. The procedure, abridged: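 Recombinant human AKR1C3 (E. coli-expressed GST fusion, GST removed), typically ~1 nM, was preincubated 15 min with compound in 50 mM potassium phosphate pH 7 with 1 mM DTT. The reaction ran typically 90 min with 10 μM NADPH and 0.3 μM Coumberone (final), then was stopped with 1 μM EM-1404. Coumberol fluorescence (ex 380/em 520 nm) was normalized to no-inhibitor and no-enzyme controls.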
For `Cc1ccc(Br)cc1S(=O)(=O)N1[C@@H]2CC[C@H]1[C@@H]1CN(C(=O)c3cnn[nH]3)C[C@@H]12` [Example 55, {(3aR,4R,7S,7aS)-8-[(5-bromo-2-methylphenyl)sulfonyl]octahydro-2H-4,7-epiminoisoindol-2-yl}(1H-1,2,3-triazol-5-yl)methanone], the IC50 (as a rule, the concentration needed to halve the response being measured) came out at 4 nM.
With `COC(=O)c1cccc(S(=O)(=O)N2[C@@H]3CC[C@H]2[C@@H]2CN(C(=O)c4cnn[nH]4)C[C@@H]23)c1` [Example 56, methyl 3-{[(3aR,4R,7S,7aS)-2-(1H-1,2,3-triazol-5-ylcarbonyl)octahydro-1H-4,7-epiminoisoindol-8-yl]sulfonyl}benzoate], the IC50 was found to be 798 nM.
The value for `O=C(c1cnn[nH]1)N1C[C@@H]2[C@H](C1)[C@H]1CC[C@@H]2N1S(=O)(=O)c1ccc2c(c1)OCO2` [Example 57, [(3aR,4R,7S,7aS)-8-(1,3-benzodioxol-5-ylsulfonyl)octahydro-2H-4,7-epiminoisoindol-2-yl](1H-1,2,3-triazol-5-yl)methanone] was 267 nM; that for `COc1cc(C)ccc1S(=O)(=O)N1[C@@H]2CC[C@H]1[C@@H]1CN(C(=O)c3cnn[nH]3)C[C@@H]12` [Example 58, {(3aR,4R,7S,7aS)-8-[(2-methoxy-4-methylphenyl)sulfonyl]octahydro-2H-4,7-epiminoisoindol-2-yl}(1H-1,2,3-triazol-5-yl)methanone] was 110 nM; that for `NC(=O)c1cccc(S(=O)(=O)N2[C@@H]3CC[C@H]2[C@@H]2CN(C(=O)c4cnn[nH]4)C[C@@H]23)c1` [Example 60, 3-{[(3aR,4R,7S,7aS)-2-(1H-1,2,3-triazol-5-ylcarbonyl)octahydro-1H-4,7-epiminoisoindol-8-yl]sulfonyl}benzamide] was 501 nM.
The same measure for `N#Cc1c(Cl)cccc1S(=O)(=O)N1[C@@H]2CC[C@H]1[C@@H]1CN(C(=O)c3cnn[nH]3)C[C@@H]12` [Example 61, 2-chloro-6-{[(3aR,4R,7S,7aS)-2-(1H-1,2,3-triazol-5-ylcarbonyl)octahydro-1H-4,7-epiminoisoindol-8-yl]sulfonyl}benzonitrile]: 84 nM; for `O=C(c1cnn[nH]1)N1C[C@@H]2[C@H](C1)[C@H]1CC[C@@H]2N1S(=O)(=O)c1cccc2c1OCC2` [Example 62, [(3aR,4R,7S,7aS)-8-(2,3-dihydro-1-benzofuran-7-ylsulfonyl)octahydro-2H-4,7-epiminoisoindol-2-yl](1H-1,2,3-triazol-5-yl)methanone]: 78 nM.
On to `O=C(c1cnn[nH]1)N1C[C@@H]2[C@H](C1)[C@H]1CC[C@@H]2N1S(=O)(=O)c1cc(F)ccc1Cl` [Example 63, {(3aR,4R,7S,7aS)-8-[(2-chloro-5-fluorophenyl)sulfonyl]octahydro-2H-4,7-epiminoisoindol-2-yl}(1H-1,2,3-triazol-5-yl)methanone], for which the IC50 worked out at 2 nM.
With `O=C(c1cnn[nH]1)N1C[C@@H]2[C@H](C1)[C@H]1CC[C@@H]2N1S(=O)(=O)c1cccc(F)c1Cl` [Example 64, {(3aR,4R,7S,7aS)-8-[(2-chloro-3-fluorophenyl)sulfonyl]octahydro-2H-4,7-epiminoisoindol-2-yl}(1H-1,2,3-triazol-5-yl)methanone], the IC50 was determined as 12 nM.
With `COc1cc(F)ccc1S(=O)(=O)N1[C@@H]2CC[C@H]1[C@@H]1CN(C(=O)c3cnn[nH]3)C[C@@H]12` [Example 65, {(3aR,4R,7S,7aS)-8-[(4-fluoro-2-methoxyphenyl)sulfonyl]octahydro-2H-4,7-epiminoisoindol-2-yl}(1H-1,2,3-triazol-5-yl)methanone], the IC50 is 45 nM.
For the molecule `COc1ccc(C#N)cc1S(=O)(=O)N1[C@@H]2CC[C@H]1[C@@H]1CN(C(=O)c3cnn[nH]3)C[C@@H]12` [Example 66, 4-methoxy-3-{[(3aR,4R,7S,7aS)-2-(1H-1,2,3-triazol-5-ylcarbonyl)octahydro-1H-4,7-epiminoisoindol-8-yl]sulfonyl}benzonitrile], the IC50 is 625 nM.
Take `N#Cc1ccc(Cl)c(S(=O)(=O)N2[C@@H]3CC[C@H]2[C@@H]2CN(C(=O)c4cnn[nH]4)C[C@@H]23)c1` [Example 67, 4-chloro-3-{[(3aR,4R,7S,7aS)-2-(1H-1,2,3-triazol-5-ylcarbonyl)octahydro-1H-4,7-epiminoisoindol-8-yl]sulfonyl}benzonitrile]: the IC50 was determined as 33 nM.
The same measure for `Cc1cc(Cl)cc(S(=O)(=O)N2[C@@H]3CC[C@H]2[C@@H]2CN(C(=O)c4cnn[nH]4)C[C@@H]23)c1` [Example 68, {(3aR,4R,7S,7aS)-8-[(3-chloro-5-methylphenyl)sulfonyl]octahydro-2H-4,7-epiminoisoindol-2-yl}(1H-1,2,3-triazol-5-yl)methanone]: 48 nM.
The value for `Nc1cccc(S(=O)(=O)N2[C@@H]3CC[C@H]2[C@@H]2CN(C(=O)c4cnn[nH]4)C[C@@H]23)c1` [Example 69, {(3aR,4R,7S,7aS)-8-[(3-aminophenyl)sulfonyl]octahydro-2H-4,7-epiminoisoindol-2-yl}(1H-1,2,3-triazol-5-yl)methanone] was 735 nM.

These data come from patent US20200085791A1, “[(PHENYLSULFONYL)OCTAHYDRO-EPIMINOISOINDOL-YL](1H-1,2,3-TRIAZOL-5-YL)METHANONES” (Bayer Pharma Aktiengesellschaft, priority 2016, published 2020).
